A value given as a limit tells only on which side of the number the result lay.

From patent publication US10350210B2, “EGFR and ALK dual inhibitor” (PRECEDO PHARMACEUTICALS CO., LTD, priority 2015, dated 2019) come the findings set out here.

Series [1] relates to BaF3-TEL-ALK. Put plainly: Cell growth (Cell Titer-Glo viability), BaF3-TEL-ALK. It is filed as cell-based. Conditions: Mus musculus; BaF3-TEL-ALK (stably expressing ALK kinase), 72 hrs. An outline of the steps:
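BaF3, TEL-kinase fusion, IL-3-free, transgene-driven growth; HCC827 = EGFR del19, NCI-H3255 = EGFR L858R. Viable cells via CellTiter-Glo, plate-reader luminescence.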

The subject of series [2] is non-small cell lung cancer cell H3122 subcutaneous tumors. As to the kind of experiment: Mouse tumor model of non-small cell lung cancer cell H3122. Conditions: for tumor inhibition rate: Bal b/c mice. The format is in vivo. As to the method:
Similarly, 72 Bal b/c female mice, 4-6 weeks old, were purchased from Shanghai SLAC Laboratory Animal Co., Ltd., and maintained in an SPF laboratory. Drinking water and bedding were both sterilized by autoclaving. All operations involving the mice were performed under aseptic conditions. At day 0, 5×10^6 non-small cell lung cancer cells H3122 (purchased from ATCC) were injected subcutaneously into the left flank of all mice. At day 15, all mice were divided into eight groups (9 mice per group), and the first group of mice were orally administered with methyl cellulose (HKI) solvent, the second group of mice were orally administered with Compound 1 at a dose of 5 mg/kg mouse weight, the third group of mice were orally administered with Compound 1 at a dose of 10 mg/kg mouse weight, the fourth group of mice were orally administered with Compound 1 at a dose of 20 mg/kg mouse weight, the fifth group of mice were orally administered with methyl cellulose (HKI) solvent, the sixth group of mice were orally administered with Compound 10 at a dose of 10 mg/kg mouse weight, the seventh group of mice were orally administered with Compound 10 at a dose of 20 mg/kg mouse weight, and the eighth group of mice were orally administered with Compound 10 at a dose of 40 mg/kg mouse weight daily. Starting from the administration, the length/width of the subcutaneous tumor was measured daily with a vernier caliper, and the weight of the mice was recorded daily to observe the effect of Compounds 1 and 10 on the body weight of the mice. For the first to fourth groups, the mice were sacrificed at day 36 and the subcutaneous tumors were collected. The tumors were weighed, and then the tumor tissues were used to prepare protein lysates for use. The growth trend of the subcutaneous tumor within 16-36 days was plotted, wherein the tumor volume was calculated as length×width×width/2 mm^3. For the fifth to eighth groups, the mice were sacrificed at day 43 and the subcutaneous tumors were collected. The tumors were weighed, and then the tumor tissues were used to prepare protein lysates for use. The growth trend of the subcutaneous tumor within 16-43 days was plotted, wherein the tumor volume was calculated as length×width×width/2 mm^3.

In series [1], `C=CC(=O)Nc1cc(Nc2ncc(Cl)c(Nc3ccccc3S(=O)(=O)C(C)C)n2)c(OC)cc1N1CCN(CC)CC1` [Compound 1, N-(5-(5-chloro-4-(2-(isopropylsulfonyl)phenylamino)pyrimidin-2-ylamino)-2-(4-ethylpiperazin-1-yl)-4-methoxyphenyl)acrylamide] yielded a GI50 of less than 0.3 nM. For the same molecule, the tumor inhibition rate in series [2] (oral daily 10 mg/kg, on the second day of administration) turned out to be 61.5%; in series [2] (oral daily 20 mg/kg), 77.7%. Further, the “body weight of the mice” value in series [2] (oral daily 10 mg/kg) was “did not decrease”.
For the molecule `C=CC(=O)Nc1cc(Nc2ncc(Cl)c(Nc3ccccc3S(=O)(=O)C(C)C)n2)c(OC)cc1N1CCCN(C)CC1` [Compound 10, N-(5-(5-chloro-4-(2-(isopropylsulfonyl)phenylamino)pyrimidin-2-ylamino)-4-methoxy-2-(4-methyl-1,4-homopiperazin-1-yl)phenyl)acrylamide], halving of growth in series [1] (GI50) required 3 nM. The tumor inhibition rate in series [2] (oral daily 20 mg/kg) is on record as 68.3%; in series [2] (oral daily 40 mg/kg), 78.4%. The “body weight of the mice” value in series [2] (oral daily 20 mg/kg) and in series [2] (oral daily 40 mg/kg) was “did not decrease” each time.
